Results published in patent US20260306640A1, “TECHNOLOGIES TARGETING CELL STATES” (Auron Therapeutics, Inc., priority 2023, published 2026).
Read-outs that look alike come from different tables or passages of the source.

Columns and labels:
Format in all cases: cell-based
histone acetylation = assay: Western blot of histone acetylation in acute myeloid leukemia MOLM-13 cells, 48 h; conditions: FIG. 2 (A)
Method: FIG. 2. Provided compounds can provide various activities. (A): Provided technologies can reduce KAT2A and KAT2B levels and histone acetylation levels. […] Cell count data after 8 days of treatment with compound 22 relative to DMSO control are presented as examples to confirm inhibition. […] (C): Provided technologies can modulate cell states and induce differentiation. […] EC50=0.3 nM.

MOLM-13 cells = assay: Cell growth inhibition, AML cell line MOLM-13 (CyQuant, day 7); conditions: for GI50: Homo sapiens
Text: Among other things, provided technologies are useful for treating various diseases, disorders, or conditions. For example, in some embodiments, provided technologies are useful for treating cancer as confirmed in the present Example. […] In some embodiments, provided technologies can inhibit cell proliferation. In some embodiments, the present disclosure provides technologies for assessing various technologies, e.g., compounds, compositions, or methods. Among other things, the present Example provides technologies, e.g., cell growth inhibition assay, for assessing various technologies. […] In some embodiments, the following cell growth inhibition methods are utilized to assess provided technologies.
AML: AML cell line MOLM-13 cells were cultured in RPMI+15% FBS and were plated at 500 cells/well in 100 uL media in a U-bottom 96-well plate. Compounds were dilute to 3×final in full media and 50 uL were added to corresponding wells. Compound and media were replenished on days 2 and 5. On day 7, cells were transferred to a 96-well black bottom plate and CyQuant was performed per manufacturer's instructions.
In some assessments, for cell growth inhibition, cells, e.g., MOLM13, NCI-H1048, and LASCPC-01 cells, were counted using a hemocytometer or automated cell counting in triplicates. In some assessments, proliferation in NEPC organoids as measured with Cell Titer Glo reagent (Promega). Growth inhibition was determined relative to vehicle control.

[1] = system: NEPC primary patient organoid; assay: Cell viability of NEPC primary patient organoid, 21 days; conditions: Homo sapiens, 504 h, cell viability relative to DMSO control after 21 days, FIG. 3 (E)
Method: FIG. 3. Provided compounds can provide various activities. (A): Provided technologies can reduce KAT2A and KAT2B levels and histone acetylation levels. […] Cell viability (Cell Titer Glo) data relative to DMSO control after 7 days of treatment with compound 22 are presented as examples to confirm inhibition. GI50=5 nM. (C): Provided technologies can modulate cell states and induce differentiation. […] (D): Provided technologies can reduce KAT2A and KAT2B levels and histone acetylation levels including in neuroendocrine prostate cancer primary patient organoid. […] Concentrations are nM. […] Cell viability data relative to DMSO control after 21 days of treatment with compound 22 are presented as examples to confirm inhibition. GI50=3 nM. (F): Provided technologies can modulate cell states and induce differentiation.

GI50 (MOLM-13 cells; 168 h, MOLM-13, day 7, CyQuant, read-out: MOLM13 GI50): 2.9 nM
GI50 (MOLM-13 cells; MOLM-13, comparison table with Ref-1, read-out: Growth GI50): 1.2 nM
Structure (SMILES): CN1C[C@H](Nc2cnn(C)c(=O)c2Br)C[C@H](c2ccc(C(=O)N3CCC(CN4CCN(c5ccc6c(c5)CN(C5CCC(=O)NC5=O)C6=O)CC4)CC3)cc2)C1 (stereo partly drawn) [Compound 22, 3-(5-(4-((1-(4-((3R,5R)-5-((5-bromo-1-methyl-6-oxo-1,6-dihydropyridazin-4-yl)amino)-1-methylpiperidin-3-yl)benzoyl)piperidin-4-yl)methyl)piperazin-1-yl)-1-oxoisoindolin-2-yl)piperidine-2,6-dione]
reduction of histone acetylation level (histone acetylation): confirm such reduction
cell growth (MOLM-13 cells; MOLM-13 cells, FIG. 2): inhibit cell growth
GI50 [1]: 3 nM
